Reference: ChEMBL document CHEMBL1201862, “PubChem BioAssay data set” (2004)
Activity calls are given as the source filed them.

Tests used:
Format in all cases: functional
[1] = target: Serine/threonine-protein kinase pim-1 (Homo sapiens, UniProt P11309)
[2] = target: Dual specificity protein kinase CLK4 (Homo sapiens, UniProt Q9HAZ1)
[3] = target: Mitogen-activated protein kinase kinase kinase kinase 4 (Homo sapiens, UniProt O95819)
[4] = target: Homeodomain-interacting protein kinase 2 (Homo sapiens, UniProt Q9H2X6);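 also: measured within a kinome-wide kinase profiling panel, HIPK2 being one panel member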
[5] = target: Glycogen synthase kinase-3 beta (Homo sapiens, UniProt P49841);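 also: value comes from a broad kinome profiling panel, with GSK3B as the panel member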
[6] = target: Cell division cycle 7-related protein kinase (Homo sapiens, UniProt O00311);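 also: value obtained from a kinome-wide kinase panel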
[7] = target: Interleukin-1 receptor-associated kinase 4 (Homo sapiens, UniProt Q9NWZ3)
[8] = target: cAMP-dependent protein kinase catalytic subunit alpha (Homo sapiens, UniProt P17612)

Measured: Ki

Sequence of Dual specificity protein kinase CLK4 (Q9HAZ1 whole entry): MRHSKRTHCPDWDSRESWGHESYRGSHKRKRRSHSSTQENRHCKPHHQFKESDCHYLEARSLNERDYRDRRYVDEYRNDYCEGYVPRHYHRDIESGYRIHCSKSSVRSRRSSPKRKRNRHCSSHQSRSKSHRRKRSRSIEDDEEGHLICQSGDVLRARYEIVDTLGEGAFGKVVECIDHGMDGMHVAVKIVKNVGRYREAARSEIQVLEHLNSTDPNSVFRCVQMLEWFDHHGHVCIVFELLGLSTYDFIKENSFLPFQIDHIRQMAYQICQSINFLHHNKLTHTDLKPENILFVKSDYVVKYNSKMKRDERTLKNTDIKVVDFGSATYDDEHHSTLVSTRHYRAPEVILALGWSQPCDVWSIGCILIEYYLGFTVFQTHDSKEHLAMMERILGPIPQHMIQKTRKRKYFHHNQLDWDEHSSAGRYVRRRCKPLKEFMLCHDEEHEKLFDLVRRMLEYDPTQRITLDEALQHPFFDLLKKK
Sequence of Mitogen-activated protein kinase kinase kinase kinase 4 (O95819 whole entry): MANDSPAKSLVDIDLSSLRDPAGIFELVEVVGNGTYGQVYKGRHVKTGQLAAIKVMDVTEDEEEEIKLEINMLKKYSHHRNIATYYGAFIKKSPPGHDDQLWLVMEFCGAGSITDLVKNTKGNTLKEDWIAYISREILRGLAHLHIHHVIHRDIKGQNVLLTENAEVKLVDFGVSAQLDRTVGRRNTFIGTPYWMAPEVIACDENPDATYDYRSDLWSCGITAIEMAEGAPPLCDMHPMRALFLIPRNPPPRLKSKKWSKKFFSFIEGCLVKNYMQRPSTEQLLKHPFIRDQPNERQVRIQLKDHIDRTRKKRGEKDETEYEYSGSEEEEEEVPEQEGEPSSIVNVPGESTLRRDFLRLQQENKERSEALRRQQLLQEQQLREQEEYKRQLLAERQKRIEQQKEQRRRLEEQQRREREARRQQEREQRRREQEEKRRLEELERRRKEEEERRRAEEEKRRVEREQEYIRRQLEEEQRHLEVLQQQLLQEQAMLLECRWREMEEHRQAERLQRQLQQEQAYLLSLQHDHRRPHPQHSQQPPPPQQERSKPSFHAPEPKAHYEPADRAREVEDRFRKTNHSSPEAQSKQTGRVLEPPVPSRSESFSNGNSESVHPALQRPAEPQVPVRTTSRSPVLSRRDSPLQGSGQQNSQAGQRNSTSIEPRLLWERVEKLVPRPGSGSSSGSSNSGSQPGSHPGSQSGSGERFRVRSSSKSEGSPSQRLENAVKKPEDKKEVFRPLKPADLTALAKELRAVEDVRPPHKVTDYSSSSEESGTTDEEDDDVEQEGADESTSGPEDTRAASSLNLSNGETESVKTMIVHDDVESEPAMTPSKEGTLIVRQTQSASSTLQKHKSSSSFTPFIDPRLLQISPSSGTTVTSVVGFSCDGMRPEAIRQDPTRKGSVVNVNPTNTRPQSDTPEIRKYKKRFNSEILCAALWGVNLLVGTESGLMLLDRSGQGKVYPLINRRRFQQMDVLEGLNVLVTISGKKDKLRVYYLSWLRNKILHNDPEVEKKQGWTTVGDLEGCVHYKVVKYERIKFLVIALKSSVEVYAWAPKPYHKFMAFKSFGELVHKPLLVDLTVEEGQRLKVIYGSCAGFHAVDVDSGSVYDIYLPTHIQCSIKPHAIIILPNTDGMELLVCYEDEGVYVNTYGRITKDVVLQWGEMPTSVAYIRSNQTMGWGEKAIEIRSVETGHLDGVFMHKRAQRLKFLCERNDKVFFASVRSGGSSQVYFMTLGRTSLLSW
Sequence of Homeodomain-interacting protein kinase 2 (Q9H2X6 whole entry): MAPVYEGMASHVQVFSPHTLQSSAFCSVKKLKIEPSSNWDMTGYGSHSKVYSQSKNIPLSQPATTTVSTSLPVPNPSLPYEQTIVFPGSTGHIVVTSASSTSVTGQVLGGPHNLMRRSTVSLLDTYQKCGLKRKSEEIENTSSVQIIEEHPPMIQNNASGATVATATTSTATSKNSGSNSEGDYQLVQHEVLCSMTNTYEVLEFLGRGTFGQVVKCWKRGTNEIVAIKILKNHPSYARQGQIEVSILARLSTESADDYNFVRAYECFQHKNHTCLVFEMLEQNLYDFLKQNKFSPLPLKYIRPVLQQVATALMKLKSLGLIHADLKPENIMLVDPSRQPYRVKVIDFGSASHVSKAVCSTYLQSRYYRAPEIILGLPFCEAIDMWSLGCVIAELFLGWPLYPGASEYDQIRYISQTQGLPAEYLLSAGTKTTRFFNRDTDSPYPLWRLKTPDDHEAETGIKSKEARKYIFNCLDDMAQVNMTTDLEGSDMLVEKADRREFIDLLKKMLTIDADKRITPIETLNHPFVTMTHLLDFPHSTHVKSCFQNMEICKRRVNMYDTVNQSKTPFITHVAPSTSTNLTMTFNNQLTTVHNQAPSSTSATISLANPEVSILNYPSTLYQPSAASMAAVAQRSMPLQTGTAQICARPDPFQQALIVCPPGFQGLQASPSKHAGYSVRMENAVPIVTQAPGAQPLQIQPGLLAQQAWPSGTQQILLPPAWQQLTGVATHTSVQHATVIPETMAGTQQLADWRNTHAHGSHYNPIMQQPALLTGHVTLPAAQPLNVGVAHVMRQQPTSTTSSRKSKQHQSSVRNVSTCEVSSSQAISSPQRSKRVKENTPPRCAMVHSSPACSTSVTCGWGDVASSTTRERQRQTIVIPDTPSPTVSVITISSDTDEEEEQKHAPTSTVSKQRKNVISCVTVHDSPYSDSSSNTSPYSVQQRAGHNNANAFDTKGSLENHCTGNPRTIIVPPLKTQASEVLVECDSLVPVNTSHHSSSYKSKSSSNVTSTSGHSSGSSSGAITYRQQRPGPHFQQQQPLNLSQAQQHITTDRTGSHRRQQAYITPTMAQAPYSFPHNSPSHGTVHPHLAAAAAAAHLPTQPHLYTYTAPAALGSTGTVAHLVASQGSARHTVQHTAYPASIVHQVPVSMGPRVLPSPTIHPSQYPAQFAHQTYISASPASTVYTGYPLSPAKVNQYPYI
Sequence of Interleukin-1 receptor-associated kinase 4 (Q9NWZ3 whole entry): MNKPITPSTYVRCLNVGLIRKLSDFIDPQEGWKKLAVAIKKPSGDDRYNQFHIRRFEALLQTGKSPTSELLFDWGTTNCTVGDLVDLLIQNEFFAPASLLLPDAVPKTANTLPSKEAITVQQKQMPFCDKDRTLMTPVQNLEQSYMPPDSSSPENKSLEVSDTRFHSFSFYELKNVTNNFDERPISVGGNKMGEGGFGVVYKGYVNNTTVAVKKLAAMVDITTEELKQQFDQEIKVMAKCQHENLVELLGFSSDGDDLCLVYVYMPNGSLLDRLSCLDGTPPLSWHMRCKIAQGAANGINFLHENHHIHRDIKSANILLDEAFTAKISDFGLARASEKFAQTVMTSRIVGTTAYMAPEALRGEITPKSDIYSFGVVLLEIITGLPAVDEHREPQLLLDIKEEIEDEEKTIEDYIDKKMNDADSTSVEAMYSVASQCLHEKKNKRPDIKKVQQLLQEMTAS
Sequence of Glycogen synthase kinase-3 beta (P49841 whole entry): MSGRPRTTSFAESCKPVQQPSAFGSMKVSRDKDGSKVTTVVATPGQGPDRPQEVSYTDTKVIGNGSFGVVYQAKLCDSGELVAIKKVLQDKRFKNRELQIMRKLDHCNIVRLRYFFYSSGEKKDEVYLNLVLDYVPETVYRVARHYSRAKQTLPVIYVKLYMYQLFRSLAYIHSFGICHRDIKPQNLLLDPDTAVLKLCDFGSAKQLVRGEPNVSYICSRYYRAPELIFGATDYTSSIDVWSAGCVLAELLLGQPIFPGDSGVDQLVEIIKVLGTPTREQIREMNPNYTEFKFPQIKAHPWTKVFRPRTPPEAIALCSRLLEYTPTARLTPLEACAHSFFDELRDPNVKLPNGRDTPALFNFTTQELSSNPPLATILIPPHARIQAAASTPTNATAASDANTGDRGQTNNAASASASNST
Sequence of Serine/threonine-protein kinase pim-1 (P11309 whole entry): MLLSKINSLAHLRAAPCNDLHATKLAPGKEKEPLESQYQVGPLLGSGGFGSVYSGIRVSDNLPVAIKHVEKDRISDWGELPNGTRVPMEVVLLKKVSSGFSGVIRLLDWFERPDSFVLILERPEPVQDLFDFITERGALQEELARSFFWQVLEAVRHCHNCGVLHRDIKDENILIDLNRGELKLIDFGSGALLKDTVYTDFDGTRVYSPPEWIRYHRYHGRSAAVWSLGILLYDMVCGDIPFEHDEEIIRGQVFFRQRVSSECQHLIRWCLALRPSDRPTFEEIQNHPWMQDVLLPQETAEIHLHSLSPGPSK
Sequence of Cell division cycle 7-related protein kinase (O00311 whole entry): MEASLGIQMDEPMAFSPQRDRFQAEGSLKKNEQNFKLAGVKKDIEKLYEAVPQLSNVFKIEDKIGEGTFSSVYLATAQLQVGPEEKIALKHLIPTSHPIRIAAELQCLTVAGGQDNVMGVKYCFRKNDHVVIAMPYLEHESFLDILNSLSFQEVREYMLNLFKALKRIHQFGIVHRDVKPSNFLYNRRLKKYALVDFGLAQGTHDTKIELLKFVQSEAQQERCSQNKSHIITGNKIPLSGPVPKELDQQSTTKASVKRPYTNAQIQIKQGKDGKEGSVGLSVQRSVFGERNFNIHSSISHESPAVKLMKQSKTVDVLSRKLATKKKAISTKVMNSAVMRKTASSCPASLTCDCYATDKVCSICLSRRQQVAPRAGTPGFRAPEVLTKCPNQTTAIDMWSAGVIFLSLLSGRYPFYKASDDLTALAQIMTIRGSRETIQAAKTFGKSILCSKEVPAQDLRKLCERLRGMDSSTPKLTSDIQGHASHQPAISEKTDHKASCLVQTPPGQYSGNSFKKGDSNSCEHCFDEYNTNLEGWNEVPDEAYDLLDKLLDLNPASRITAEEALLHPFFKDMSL

CC(C)(C)Oc1cc(-c2ccncc2)cc2[nH]nc(N)c12
active: [1] 1580 nM | [2] 12.6 nM | [3] 251 nM | [4] 398 nM | [5] 631 nM | [6] 2.51 nM | [7] 251 nM | [8] 158 nM
